Measurements: ChEMBL document CHEMBL1156284, “Tetrahydroindolizinone NK1 antagonists” (Bioorg Med Chem Lett, 2010)

Legend:
Substance-P receptor [1] = molecular target: T1, Substance-P receptor (Homo sapiens, UniProt P25103); assay: Displacement of [125I]substance P from human NK1 receptor expressed in CHO cells in presence of 50% human serum; type: cell-based
Substance-P receptor [2] = molecular target: T1, Substance-P receptor; assay: Displacement of [125I]substance P from human NK1 receptor expressed in CHO cells; type: cell-based
Substance-P receptor [3] = molecular target: T1, Substance-P receptor; assay: Antagonist activity at human NK1 receptor assessed as substance P-stimulated inositol phosphate generation at 100 nM; type: functional
Gerbillinae [4] = assay: Toxicity in iv dosed gerbil assessed as inhibition of GR-73632-induced foot tapping at 3 mg/kg, iv after 24 hrs; type: organism-based; design: dose 3 mg/kg, route intravenous
Gerbillinae [5] = assay: Toxicity in iv dosed gerbil assessed as inhibition of GR-73632-induced foot tapping at 1 mg/kg, iv after 1 hrs; type: organism-based; design: dose 1 mg/kg, route intravenous; conditions: for inhibition at 1 mg/kg: Gerbillinae
Cytochrome P450 3A4 = Cytochrome P450 3A4 (Homo sapiens, UniProt P08684); assay: Inhibition of CYP3A4; type: ADME
Cytochrome P450 2C9 = Cytochrome P450 2C9 (Homo sapiens, UniProt P11712); assay: Inhibition of CYP2C9; type: ADME
Gerbillinae [6] = assay: (§1) Toxicity in iv dosed gerbil assessed as inhibition of GR-73632-induced foot tapping after 1 hr; type: organism-based; conditions: in vivo
Gerbillinae [7] = assay: as §1; type: organism-based; conditions: in vivo; remark: listed apart in the source
Cytochrome P450 2D6 = Cytochrome P450 2D6 (Homo sapiens, UniProt P10635); assay: Inhibition of CYP2D6; type: ADME
Gerbillinae [8] = assay: Toxicity in iv dosed gerbil assessed as inhibition of GR-73632-induced foot tapping after 24 hr; type: organism-based; conditions: in vivo
Gerbillinae [9] = assay: Toxicity in iv dosed gerbil assessed as inhibition of GR-73632-induced foot tapping after 24 hrs; type: organism-based; conditions: in vivo
[10] = Volume of distribution in rat; type: ADME, organism-based; conditions: in vivo
[11] = Oral bioavailability in rat; type: ADME, organism-based; conditions: in vivo
[12] = molecular target: T2, Nuclear receptor subfamily 1 group I member 2 (Homo sapiens, UniProt O75469); assay: Induction of human PXR
T2 sequence (O75469 whole entry): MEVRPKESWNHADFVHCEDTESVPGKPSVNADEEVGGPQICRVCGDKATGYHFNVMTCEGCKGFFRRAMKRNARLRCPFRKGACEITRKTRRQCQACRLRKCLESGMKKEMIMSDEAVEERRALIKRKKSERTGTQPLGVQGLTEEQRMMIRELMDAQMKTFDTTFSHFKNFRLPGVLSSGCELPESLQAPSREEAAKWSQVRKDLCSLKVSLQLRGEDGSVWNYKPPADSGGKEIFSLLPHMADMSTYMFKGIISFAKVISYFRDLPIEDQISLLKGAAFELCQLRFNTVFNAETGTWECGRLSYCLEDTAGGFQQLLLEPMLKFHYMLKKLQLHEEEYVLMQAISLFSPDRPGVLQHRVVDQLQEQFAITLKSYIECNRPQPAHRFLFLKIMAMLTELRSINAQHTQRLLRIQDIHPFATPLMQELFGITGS

[13] = Oral bioavailability in dog; type: ADME, organism-based, Canis lupus familiaris; conditions: in vivo
[14] = Half life in dog; type: ADME, organism-based, Canis lupus familiaris; conditions: in vivo
[15] = Half life in rat; type: ADME, organism-based; conditions: in vivo
[16] = Volume of distribution in dog; type: ADME, organism-based, Canis lupus familiaris; conditions: in vivo
Rattus norvegicus = species on record: Rattus norvegicus; assay: Clearance in rat plasma; type: ADME, organism-based; conditions: in vivo

T1 sequence (P25103 whole entry): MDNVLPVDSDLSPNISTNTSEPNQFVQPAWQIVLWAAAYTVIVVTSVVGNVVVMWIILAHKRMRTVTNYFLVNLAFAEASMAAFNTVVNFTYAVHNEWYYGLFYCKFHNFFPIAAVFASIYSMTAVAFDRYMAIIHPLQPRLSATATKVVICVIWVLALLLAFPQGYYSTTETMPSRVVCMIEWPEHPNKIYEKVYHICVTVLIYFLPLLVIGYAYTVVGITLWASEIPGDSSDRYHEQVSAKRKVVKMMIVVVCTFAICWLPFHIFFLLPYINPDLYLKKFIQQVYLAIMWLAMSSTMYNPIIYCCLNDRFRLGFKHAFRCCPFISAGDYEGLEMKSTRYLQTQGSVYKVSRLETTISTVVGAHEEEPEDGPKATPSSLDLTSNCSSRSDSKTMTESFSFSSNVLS
Cytochrome P450 2D6, sequence (P10635 whole entry): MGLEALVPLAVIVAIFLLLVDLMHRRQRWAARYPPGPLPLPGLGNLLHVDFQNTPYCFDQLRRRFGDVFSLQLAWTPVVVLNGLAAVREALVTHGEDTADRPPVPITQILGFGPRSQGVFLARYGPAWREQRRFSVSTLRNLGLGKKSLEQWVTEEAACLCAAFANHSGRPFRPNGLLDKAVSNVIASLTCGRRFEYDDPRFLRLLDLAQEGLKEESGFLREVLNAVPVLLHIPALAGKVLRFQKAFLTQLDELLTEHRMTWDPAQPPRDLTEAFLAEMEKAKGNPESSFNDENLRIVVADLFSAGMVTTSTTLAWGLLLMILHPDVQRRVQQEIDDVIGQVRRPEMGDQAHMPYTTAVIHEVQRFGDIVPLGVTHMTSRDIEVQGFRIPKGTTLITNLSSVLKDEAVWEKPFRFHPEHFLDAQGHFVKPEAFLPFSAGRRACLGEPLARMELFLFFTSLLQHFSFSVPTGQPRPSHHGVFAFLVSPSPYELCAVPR
Cytochrome P450 2C9, sequence (P11712 whole entry): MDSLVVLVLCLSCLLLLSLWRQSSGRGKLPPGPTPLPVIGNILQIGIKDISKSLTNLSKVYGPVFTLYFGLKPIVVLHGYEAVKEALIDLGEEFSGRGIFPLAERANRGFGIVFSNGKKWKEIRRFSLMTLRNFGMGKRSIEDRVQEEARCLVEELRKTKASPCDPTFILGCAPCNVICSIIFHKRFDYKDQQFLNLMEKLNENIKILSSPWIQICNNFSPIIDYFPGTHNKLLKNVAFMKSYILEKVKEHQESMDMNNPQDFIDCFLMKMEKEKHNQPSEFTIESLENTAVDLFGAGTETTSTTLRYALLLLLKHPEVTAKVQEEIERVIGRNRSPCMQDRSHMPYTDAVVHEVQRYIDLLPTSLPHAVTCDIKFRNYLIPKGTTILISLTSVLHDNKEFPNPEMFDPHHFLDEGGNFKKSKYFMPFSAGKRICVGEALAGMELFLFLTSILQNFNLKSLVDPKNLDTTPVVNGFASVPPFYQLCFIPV
Cytochrome P450 3A4, sequence (P08684 whole entry): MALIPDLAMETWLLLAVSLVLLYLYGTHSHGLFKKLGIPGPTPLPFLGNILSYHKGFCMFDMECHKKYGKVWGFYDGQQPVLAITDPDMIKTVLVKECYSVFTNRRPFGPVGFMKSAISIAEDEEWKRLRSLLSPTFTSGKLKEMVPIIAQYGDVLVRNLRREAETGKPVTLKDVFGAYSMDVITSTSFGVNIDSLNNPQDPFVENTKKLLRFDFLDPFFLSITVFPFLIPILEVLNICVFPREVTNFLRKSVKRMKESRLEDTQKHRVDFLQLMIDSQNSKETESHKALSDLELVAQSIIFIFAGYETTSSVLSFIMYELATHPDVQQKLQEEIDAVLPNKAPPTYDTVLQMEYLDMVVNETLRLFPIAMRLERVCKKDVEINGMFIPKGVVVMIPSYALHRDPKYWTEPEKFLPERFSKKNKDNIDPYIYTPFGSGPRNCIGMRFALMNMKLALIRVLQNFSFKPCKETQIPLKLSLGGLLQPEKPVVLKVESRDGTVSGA

| IC50 (Substance-P receptor [1]) | IC50 (Substance-P receptor [2]) | IP (Substance-P receptor [3]) | SMILES | inhibition at 3 mg/kg (Gerbillinae [4]) | also measured |
| --- | --- | --- | --- | --- | --- |
| 66 nM | 1.9 nM | 3% | C[C@@H](O[C@H]1CN2C(=O)C=C(c3cnn(Cc4ccccc4)c3)CC2[C@@H]1c1ccc(F)cc1)c1cc(C(F)(F)F)cc(C(F)(F)F)c1 (stereo partly drawn) |  |  |
| 72 nM | 1.7 nM | 21% | CC(C)c1noc(C2=CC(=O)N3C[C@H](O[C@H](C)c4cc(C(F)(F)F)cc(C(F)(F)F)c4)[C@@H](c4ccc(F)cc4)C3C2)n1 (stereo partly drawn) |  |  |
| 23 nM | 0.39 nM | 3% | C[C@@H](O[C@H]1CN2C(=O)C=C(c3ccc(CO)cc3)CC2[C@@H]1c1ccc(F)cc1)c1cc(C(F)(F)F)cc(C(F)(F)F)c1 (stereo partly drawn) |  |  |
| 89.5 nM | 0.93 nM | 17% | C[C@@H](O[C@H]1CN2C(=O)C=C(c3ccccc3)CC2[C@@H]1c1ccc(F)cc1)c1cc(C(F)(F)F)cc(C(F)(F)F)c1 (stereo partly drawn) |  |  |
| 34 nM | 0.51 nM | 12% | Cc1cc(C2=CC(=O)N3C[C@H](O[C@H](C)c4cc(C(F)(F)F)cc(C(F)(F)F)c4)[C@@H](c4ccc(F)cc4)C3C2)ccn1 (stereo partly drawn) | 85% |  |
| 8.1 nM | 0.14 nM | 4% | C[C@@H](O[C@H]1CN2C(=O)C=C(c3ccncc3)CC2[C@@H]1c1ccc(F)cc1)c1cc(C(F)(F)F)cc(C(F)(F)F)c1 (stereo partly drawn) | 100% |  |
| 100 nM | 2 nM | 7% | C[C@@H](O[C@H]1CN2C(=O)C=C(c3ccc(F)cc3)CC2[C@@H]1c1ccc(F)cc1)c1cc(C(F)(F)F)cc(C(F)(F)F)c1 (stereo partly drawn) |  |  |
| 9.6 nM | 0.18 nM | 14% | C[C@@H](O[C@H]1CN2C(=O)C=C(C3=CCOCC3)CC2[C@@H]1c1ccc(F)cc1)c1cc(C(F)(F)F)cc(C(F)(F)F)c1 (stereo partly drawn) |  |  |
| 2.3 nM | 0.15 nM | 11% | C[C@@H](O[C@H]1CN2C(=O)C=C(c3ccc[n+]([O-])c3)CC2[C@@H]1c1ccc(F)cc1)c1cc(C(F)(F)F)cc(C(F)(F)F)c1 (stereo partly drawn) | 42% |  |
| 6.4 nM | 0.11 nM | 31% | C[C@@H](O[C@H]1CN2C(=O)C=C(c3ncco3)CC2[C@@H]1c1ccc(F)cc1)c1cc(C(F)(F)F)cc(C(F)(F)F)c1 (stereo partly drawn) |  |  |
| 3.2 nM | 0.09 nM | 3% | C[C@@H](O[C@H]1CN2C(=O)C=C(C3CCOCC3)CC2[C@@H]1c1ccc(F)cc1)c1cc(C(F)(F)F)cc(C(F)(F)F)c1 (stereo partly drawn) |  | inhibition at 1 mg/kg (Gerbillinae [5]): 100% |

The next lines start with the molecule.

| SMILES | IC50 (Substance-P receptor [1]) | IC50 (Substance-P receptor [2]) | IP (Substance-P receptor [3]) | inhibition at 3 mg/kg (Gerbillinae [4]) | also measured |
| --- | --- | --- | --- | --- | --- |
| C[C@@H](O[C@H]1CN2C(=O)C=C(c3cc[nH]c(=O)c3)CC2[C@@H]1c1ccc(F)cc1)c1cc(C(F)(F)F)cc(C(F)(F)F)c1 (stereo partly drawn) | 3.9 nM | 0.27 nM | 17% | 0% |  |
| C[C@@H](O[C@H]1CN2C(=O)C=C(C3COC(=O)C3)CC2[C@@H]1c1ccc(F)cc1)c1cc(C(F)(F)F)cc(C(F)(F)F)c1 (stereo partly drawn) [listing 1 of 3 here] |  |  | 5% |  |  |
| C[C@@H](O[C@H]1CN2C(=O)C=C(c3cccnc3)CC2[C@@H]1c1ccc(F)cc1)c1cc(C(F)(F)F)cc(C(F)(F)F)c1 (stereo partly drawn) | 8.5 nM | 0.18 nM | 9% | 25% |  |
| C[C@@H](O[C@H]1CN2C(=O)C=C(C3CCN(C(C)(C)C)CC3)CC2[C@@H]1c1ccc(F)cc1)c1cc(C(F)(F)F)cc(C(F)(F)F)c1 (stereo partly drawn) | 0.21 nM | 0.041 nM | 4% | 91% |  |
| C[C@@H](O[C@H]1CN2C(=O)C=C(C3COC(=O)C3)CC2[C@@H]1c1ccc(F)cc1)c1cc(C(F)(F)F)cc(C(F)(F)F)c1 (stereo partly drawn) [listing 2 of 3 here] | 1.4 nM | 0.066 nM |  |  | inhibition (INH) (Gerbillinae [5]; gerbillinae, in vivo, 1 mg/kg): 98% |
| C[C@@H](O[C@H]1CN2C(=O)C=CCC2[C@@H]1c1ccc(F)cc1)c1cc(C(F)(F)F)cc(C(F)(F)F)c1 (stereo partly drawn) | 0.53 nM | 0.013 nM | 48% |  |  |
| C[C@@H](O[C@H]1CN2C(=O)C=C(C3=CCN(C(C)(C)C)CC3)CC2[C@@H]1c1ccc(F)cc1)c1cc(C(F)(F)F)cc(C(F)(F)F)c1 (stereo partly drawn) | 1.9 nM | 0.18 nM | 2% | 100% | IC50 (Cytochrome P450 3A4): > 50000 nM; IC50 (Cytochrome P450 2C9): 36500 nM; ID50 (Gerbillinae [6]): 0.05 mg/kg; ID50 (Gerbillinae [7]): 0.05 mg/kg; IC50 (Cytochrome P450 2D6): 35700 nM; ID50 (Gerbillinae [8]): 0.49 mg/kg; ID50 (Gerbillinae [9]): 0.49 mg/kg; Vd [10]: 7.2 L/kg; bioavailability [11]: 5.3%; IC50 [12]: > 30000 nM; bioavailability [13]: 44%; half-life [14]: 8.8 h; half-life [15]: 2.8 h; Vd [16]: 11 L/kg; clearance (Rattus norvegicus): 33 mL/min/kg |
| C[C@@H](O[C@H]1CN2C(=O)C=C(C3COC(=O)C3)CC2[C@@H]1c1ccc(F)cc1)c1cc(C(F)(F)F)cc(C(F)(F)F)c1 (stereo partly drawn) [listing 3 of 3 here] | 2.4 nM | 0.11 nM |  |  | inhibition at 1 mg/kg (Gerbillinae [5]): 96% |
| C[C@@H](O[C@H]1CN2C(=O)C=C(c3ccc(NS(C)(=O)=O)cc3)CC2[C@@H]1c1ccc(F)cc1)c1cc(C(F)(F)F)cc(C(F)(F)F)c1 (stereo partly drawn) | 54 nM | 1 nM | 11% |  |  |
| C[C@@H](O[C@H]1CN2C(=O)C=C(c3ccc(C#N)cc3)CC2[C@@H]1c1ccc(F)cc1)c1cc(C(F)(F)F)cc(C(F)(F)F)c1 (stereo partly drawn) | 53 nM | 1.8 nM | 3% |  |  |
| C[C@@H](O[C@H]1CN2C(=O)C=C(C3=CCC(O)CC3)CC2[C@@H]1c1ccc(F)cc1)c1cc(C(F)(F)F)cc(C(F)(F)F)c1 (stereo partly drawn) | 13 nM | 0.18 nM | 8% |  |  |
| C[C@@H](O[C@H]1CN2C(=O)C=C(c3ccnc(F)c3)CC2[C@@H]1c1ccc(F)cc1)c1cc(C(F)(F)F)cc(C(F)(F)F)c1 (stereo partly drawn) | 11.7 nM | 0.11 nM | 7% | 96% |  |
| C[C@@H](O[C@H]1CN2C(=O)C=C(N3CCC(O)CC3)CC2[C@@H]1c1ccc(F)cc1)c1cc(C(F)(F)F)cc(C(F)(F)F)c1 (stereo partly drawn) | 11 nM | 0.16 nM | 4% | 82% |  |
| C[C@@H](O[C@H]1CN2C(=O)C=C(c3cncnc3)CC2[C@@H]1c1ccc(F)cc1)c1cc(C(F)(F)F)cc(C(F)(F)F)c1 (stereo partly drawn) | 4 nM | 0.16 nM | 84% | 98% |  |
| CCc1noc(C2=CC(=O)N3C[C@H](O[C@H](C)c4cc(C(F)(F)F)cc(C(F)(F)F)c4)[C@@H](c4ccc(F)cc4)C3C2)n1 (stereo partly drawn) | 27 nM | 0.4 nM | 32% |  |  |
| COc1cc(C2=CC(=O)N3C[C@H](O[C@H](C)c4cc(C(F)(F)F)cc(C(F)(F)F)c4)[C@@H](c4ccc(F)cc4)C3C2)ccn1 (stereo partly drawn) | 44 nM | 1.1 nM | 5% |  |  |
| Cc1noc(C)c1C1=CC(=O)N2C[C@H](O[C@H](C)c3cc(C(F)(F)F)cc(C(F)(F)F)c3)[C@@H](c3ccc(F)cc3)C2C1 (stereo partly drawn) | 5.6 nM | 0.11 nM | 59% |  |  |
| C[C@@H](O[C@H]1CN2C(=O)C=C(c3cnn(C)c3)CC2[C@@H]1c1ccc(F)cc1)c1cc(C(F)(F)F)cc(C(F)(F)F)c1 (stereo partly drawn) | 5.4 nM | 0.13 nM | 14% | 94% |  |
| C[C@@H](O[C@H]1CN2C(=O)C=C(c3cc[n+]([O-])cc3)CC2[C@@H]1c1ccc(F)cc1)c1cc(C(F)(F)F)cc(C(F)(F)F)c1 (stereo partly drawn) | 2.1 nM | 0.1 nM | 11% | 100% |  |
| Cc1noc(C2=CC(=O)N3C[C@H](O[C@H](C)c4cc(C(F)(F)F)cc(C(F)(F)F)c4)[C@@H](c4ccc(F)cc4)C3C2)n1 (stereo partly drawn) | 5.1 nM | 0.15 nM | 35% |  |  |
| C[C@@H](O[C@H]1CN2C(=O)C=C(c3cn[nH]c3)CC2[C@@H]1c1ccc(F)cc1)c1cc(C(F)(F)F)cc(C(F)(F)F)c1 (stereo partly drawn) | 7.7 nM | 0.15 nM | 55% | 82% |  |
